Measured values reported in ChEMBL document CHEMBL3045015, “Synthesis and physiological evaluation of new N-nitroso-2,6-dicarbethoxy-3,5-diaryltetrahydro-1,4-thiazine-1,1-dioxides” (Med Chem Res, 2012).

Legend:
Streptococcus pyogenes [1] = test: Antibacterial activity against Streptococcus pyogenes MTCC 389 at 10 ug/ml by disk diffusion method; assay type: functional; settings: read-out: IZ
Mus musculus = test: Acute toxicity in Mus musculus (mouse) at 300 mg/kg; assay type: organism-based; design: dose 300 mg/kg; settings: in vivo
Staphylococcus aureus [2] = test: Antibacterial activity against Staphylococcus aureus MTCC 96 at 10 ug/ml by disk diffusion method; assay type: functional; settings: read-out: IZ
Staphylococcus aureus [3] = test: Ratio of compound IZ to amikacin IZ for Staphylococcus aureus MTCC 96 at 10 ug/ml by disk diffusion method; assay type: functional
Pseudomonas aeruginosa [4] = test: Ratio of compound IZ to amikacin IZ for Pseudomonas aeruginosa […] at 10 ug/ml by disk diffusion method; assay type: functional
Escherichia coli [5] = test: Ratio of compound IZ to amikacin IZ for Escherichia coli MTCC 722 at 10 ug/ml by disk diffusion method; assay type: functional
Pseudomonas aeruginosa [6] = test: Antibacterial activity against Pseudomonas aeruginosa […] at 10 ug/ml by disk diffusion method; assay type: functional; settings: read-out: IZ
Candida albicans [7] = test: Ratio of compound IZ to nystatin IZ for Candida albicans MTCC 227 at 10 ug/ml by disk diffusion method; assay type: functional
Escherichia coli [8] = test: Antibacterial activity against Escherichia coli MTCC 722 at 10 ug/ml by disk diffusion method; assay type: functional; settings: read-out: IZ
Candida albicans [9] = test: Antifungal activity against Candida albicans MTCC 227 at 10 ug/ml by disk diffusion method; assay type: functional; settings: read-out: IZ
Streptococcus pyogenes [10] = test: Ratio of compound IZ to amikacin IZ for Streptococcus pyogenes MTCC 389 at 10 ug/ml by disk diffusion method; assay type: functional

Structure (SMILES) | zone of inhibition at 10 µg/mL (Streptococcus pyogenes [1]) [mm] | Activity (Mus musculus) | zone of inhibition at 10 µg/mL (Staphylococcus aureus [2]) [mm] | Ratio (Staphylococcus aureus [3]) | Ratio (Pseudomonas aeruginosa [4]) | Ratio (Escherichia coli [5]) | zone of inhibition at 10 µg/mL (Pseudomonas aeruginosa [6]) [mm] | Ratio (Candida albicans [7]) | zone of inhibition at 10 µg/mL (Escherichia coli [8]) [mm] | zone of inhibition at 10 µg/mL (Candida albicans [9]) [mm] | Ratio (Streptococcus pyogenes [10])
CCOC(=O)C1C(c2ccc3c(c2)OCO3)N(N=O)C(c2ccc3c(c2)OCO3)C(C(=O)OCC)S1(=O)=O (centres undefined) | 11 | Non-toxic | 9 | 0.5 | 0.71 | 0.47 | 12 | 0.53 | 8 | 10 | 0.55
CCOC(=O)C1C(c2cccnc2)N(N=O)C(c2cccnc2)C(C(=O)OCC)S1(=O)=O (centres undefined) | 8 | Non-toxic | 14 | 0.78 | 0.65 | 0.71 | 11 | 0.79 | 12 | 15 | 0.4
CCOC(=O)C1C(c2ccc(Cl)cc2)N(N=O)C(c2ccc(Cl)cc2)C(C(=O)OCC)S1(=O)=O (centres undefined) | 10 | Non-toxic | 10 | 0.56 | 0.71 | 0.76 | 12 | 0.84 | 13 | 16 | 0.5
CCOC(=O)C1C(c2ccc(OC)c(OC)c2)N(N=O)C(c2ccc(OC)c(OC)c2)C(C(=O)OCC)S1(=O)=O (centres undefined) | 8 | Non-toxic | 12 | 0.67 | 0.65 | 0.76 | 11 | 0.74 | 13 | 14 | 0.4
CCOC(=O)C1C(c2cccc(Cl)c2)N(N=O)C(c2cccc(Cl)c2)C(C(=O)OCC)S1(=O)=O (centres undefined) | 8 | Non-toxic | 11 | 0.61 | 0.59 | 0.82 | 10 | 0.79 | 14 | 15 | 0.4
CCOC(=O)C1C(c2cc3ccccc3nc2Cl)N(N=O)C(c2cc3ccccc3nc2Cl)C(C(=O)OCC)S1(=O)=O (centres undefined) | 12 | Non-toxic | 14 | 0.78 | 0.59 | 0.53 | 10 | 0.95 | 9 | 18 | 0.6
CCOC(=O)C1C(c2ccc([N+](=O)[O-])cc2)N(N=O)C(c2ccc([N+](=O)[O-])cc2)C(C(=O)OCC)S1(=O)=O (centres undefined) | 17 | Non-toxic | 13 | 0.72 | 0.65 | 1 | 11 | 0.63 | 17 | 12 | 0.85
CCOC(=O)C1C(c2ccco2)N(N=O)C(c2ccco2)C(C(=O)OCC)S1(=O)=O (centres undefined) | 11 | Non-toxic | 12 | 0.67 | 0.59 | 0.88 | 10 | 0.74 | 15 | 14 | 0.55
NCC[C@H](O)C(=O)N[C@@H]1C[C@H](N)[C@@H](O[C@H]2O[C@H](CN)[C@@H](O)[C@H](O)[C@H]2O)[C@H](O)[C@H]1O[C@H]1O[C@H](CO)[C@@H](O)[C@H](N)[C@H]1O [AMIKACIN] | 20 | – | 18 | – | – | – | 17 | – | 17 | – | –
CCOC(=O)C1C(c2ccc[nH]2)N(N=O)C(c2ccc[nH]2)C(C(=O)OCC)S1(=O)=O (centres undefined) | 14 | Non-toxic | 13 | 0.72 | 0.71 | 0.65 | 12 | 0.58 | 11 | 11 | 0.7
CCOC(=O)C1C(c2ccccc2)N(N=O)C(c2ccccc2)C(C(=O)OCC)S1(=O)=O (centres undefined) | 15 | Non-toxic | 11 | 0.61 | 0.76 | 0.71 | 13 | 0.69 | 12 | 13 | 0.75
CCOC(=O)C1C(c2ccccc2Cl)N(N=O)C(c2ccccc2Cl)C(C(=O)OCC)S1(=O)=O (centres undefined) | 10 | Non-toxic | 9 | 0.5 | 0.71 | 0.76 | 12 | 0.84 | 13 | 16 | 0.5
CCOC(=O)C1C(c2cccc([N+](=O)[O-])c2)N(N=O)C(c2cccc([N+](=O)[O-])c2)C(C(=O)OCC)S1(=O)=O (centres undefined) | 9 | Non-toxic | 12 | 0.67 | 0.88 | 0.82 | 15 | 0.69 | 14 | 13 | 0.45
CCOC(=O)C1C(c2ccsc2)N(N=O)C(c2ccsc2)C(C(=O)OCC)S1(=O)=O (centres undefined) | 9 | Non-toxic | 15 | 0.83 | 0.76 | 0.82 | 13 | 0.74 | 14 | 14 | 0.45
CCOC(=O)C1C(c2ccc(OC)cc2)N(N=O)C(c2ccc(OC)cc2)C(C(=O)OCC)S1(=O)=O (centres undefined) | 13 | Non-toxic | 11 | 0.61 | 1.11 | 0.71 | 18 | 0.69 | 12 | 13 | 0.65
CCOC(=O)C1C(c2cccs2)N(N=O)C(c2cccs2)C(C(=O)OCC)S1(=O)=O (centres undefined) | 15 | Non-toxic | 17 | 0.94 | 0.82 | 0.76 | 14 | 1.11 | 13 | 20 | 0.75
